For one data set, the target named is T1, Aβ40 (Homo sapiens, UniProt P05067).
T1 construct: Aβ40 peptide was synthesized on a PS3 solid phase peptide synthesizer; made in house; host or cells: chemical solid-phase peptide synthesis (Fmoc), no expression host
In words: ThT aggregation kinetics assay of Aβ40 with APP (glyco)peptides. The note with it: 50 mM phosphate buffer pH 7.4, 20 µM ThT, 37°C.

The nature of data set [1]: CD spectroscopy, secondary structure content by BeStSel. The format is physicochemical. The note with it: for RC (%) random coil / α-H (%) α-helix / β-AP (%) anti-parallel β-sheet / β-P (%) parallel β-sheet / β-T (%) β-turn: CD, BeStSel, 0.065 mg/ml, 25°C. The procedure: All (glyco)peptides were analyzed for their secondary structure using circular dichroism (CD) spectroscopy on a Jasco-810 spectropolarimeter (Jasco, Easton, MD) in three solvent systems: water, 10 mM sodium phosphate buffer (pH 7.4), and 50% trifluoroethanol (TFE) in water (v/v) mixture. The CD spectra were recorded using a quartz cell of 1 mm optical path length over a wavelength range of […] with a scanning speed of 100 nm/min and a response time of 4 s at 25°C. A concentration of 0.065 mg/ml, determined using the analytical RP-HPLC method, gave the […] signal-to-noise ratio for all (glyco)peptides. All spectra were baseline-corrected to account for the signal contribution from solvent and then converted into molar ellipticity (deg cm^2 dmol^−1) ([Sreerama and Woody, 2000]). Lastly, the percentages of all secondary structures were determined using the BeStSel method ([Micsonai et al., 2018]; [Singh et al., 2021]).
To study the role of O-glycosylation on the conformation of APP glycopeptides, circular dichroism (CD) spectroscopy was used to probe the secondary structure in three different solvents, water, sodium phosphate buffer (10 mM, pH 7.4), and 50% trifluoroethanol (TFE) in water (v/v) (Figure 1). The spectra were further analysed for secondary structure estimations by Beta Structure Selection (BeStSel) method, specifically designed for the analysis of beta sheet-rich proteins (Table 2) ([Micsonai et al., 2015], [2018]).

The target of data set [2] is T2, Recombinant human BACE-1 (rhBACE-1) (Homo sapiens, UniProt P56817).
T2 construct: purchased R&D Systems #ES004 and #931-AS, respectively (so in the source)
In words: Proteolytic cleavage of APP (glyco)peptides by BACE-1, RP-HPLC peak integration. The format is biochemical. The note with it: 100 μM substrate, 50 nM rhBACE-1, 0.1 M sodium acetate pH 4.0, 24 h, 37°C, dark; RP-HPLC peak integration at 214 nm, averaged from two injections, SD <5%. The procedure: All APP-based substrates were prepared as 10 mM stocks in DMSO. Before proteolysis, the activity of BACE-1 was verified by the reaction with the fluorogenic BACE-1substrate Mca-[…](Dnp)RR-NH2 ([Koike et al., 1999]) as per the manufacturer’s instructions. For the proteolysis assay, APP-based substrates were diluted in BACE-1 activity buffer (0.1 M sodium acetate, pH 4.0) to the final assay concentration of 100 μM. BACE-1 was diluted to 50 nM final concentration. Reactions were incubated for 24 h at 37°C in the dark. After the incubation period, the enzyme cleavage solutions containing APP-based substrates and BACE-1 were analyzed using the analytical RP-HPLC method on the Aeris C18 column with 0.1% TFA in water (A) and 0.1% TFA in acetonitrile (B) as eluents and 0–60% B as the elution gradient over 30 min with a flow rate of 0.8 ml/min, and detection at 214 nm or the Vydac Denali C18 column with 0.1% TFA in water (A) and 0.1% TFA in acetonitrile (B) as eluents and 0–60% B as the elution gradient over 30 min with a flow rate of 1 ml/min, and detection at 214 nm. The identity of intact and cleaved (N- and C-terminal) fragments of (glyco)peptides in the absence and presence of BACE-1 (β-secretase) was confirmed by MALDI-TOF and their percentages were evaluated by the integration of the RP-HPLC peaks (averaged from two injections).
Glycosylation can alter substrate recognition and impact enzyme activity in either a positive (enhancing) or negative (inhibiting) manner ([Goettig, 2016]; [Goth et al., 2018]). The mucin-type O-linked glycosylation of a protein may not only affect its conformation but also affect its transport and localization in the cell ([Matsuura et al., 1989]; [Chen et al., 2002]). Proteases are highly regulated by post-translational modifications and drive fate, localization, and activity of many proteins ([Bond, 2019]). Certain mutations can also affect the subcellular localization of the cleavage event by crucial proteases and mediate a different cellular mechanism for the protein ([Haass et al., 1995]). […] Therefore, similar enzyme cleavage assays with BACE-1 were set up to explore the effect of the Swedish mutation, length of the amino acid sequence, glycan position and valency on the proteolytic susceptibility of 3–12. BACE1 produced two fragments upon cleavage of (glyco)peptides, for which yields were determined after 24 h treatment. The yields of intact peptide and fragments were evaluated by the RP-HPLC peaks integration (Table 3, and the Supplementary Material S20–S32).
3. Enzyme cleavage assays with APP (glyco)peptides 3-12 by RP-HPLC and MALDI-TOF MS
For the BACE1 enzyme cleavage assay, APP-based (glyco)peptide substrates were diluted in BACE1 activity buffer and incubated with BACE1 for 24 h at 37 °C in the dark. After the incubation period, the enzyme cleavage solutions containing APP-based (glyco)peptide substrates and BACE1 were analyzed using analytical RP-HPLC.
RP-HPLC gradient on Phenomenex Aeris Peptide C18 column (150 x 4.6 mm, 3.6 µm, 100Å):
Eluents were 0.1% TFA in water (A) and 0.1% TFA in acetonitrile (B). The elution gradient was 0-60%B in 30 minutes with a flow rate of 0.8 mL/min. Detection was at λ = 214 nm.
S*/T*= Ser(-α-GalNAc) 1/Thr(-α-GalNAc) 2
(a) APP665-680, 3 in activity buffer
(b) APP665-680 (3) + BACE1 in activity buffer […]

Data set [3] can be described thus: Analytical RP-HPLC retention time, read as hydrophobicity/hydrophilicity. The format is physicochemical. The note with it: C18 (Phenomenex Aeris Peptide C18 150 x 4.6 mm, 0.8 ml/min), 0.1% TFA water/acetonitrile, 0-60% B over 30 min, 214 nm, Supplementary S2-S9. How it is done: Purification of all (glyco)peptides and their corresponding analyses were performed on a 1,260 Agilent Infinity system. The analytical RP-HPLC method uses a Phenomenex Aeris Peptide C18 column (150 mm × 4.6 mm, 3.6 μm, 100 Å) at 0.8 ml/min flow rate or a Vydac Denali C18 column (250 mm × 4.6 mm, 5 μm, 120Å) at 1 ml/min flow rate, with 0.1% TFA in water (A) and 0.1% TFA in acetonitrile (B) as the eluents. The elution gradient for analytical RP-HPLC purification was 0–60% B over 30 min. The preparative RP-HPLC method uses the Grace Vydac monomeric C18 column (250 mm × 22 mm, 15–20 μm, 300Å) at 10 ml/min flow rate, with 0.1% TFA in water (A) and 0.1% TFA in acetonitrile (B) as the eluents. The elution gradient for preparative RP-HPLC purification was 0–50% over 110 min. The (glyco)peptides were detected at 214 nm by using a UV-Vis detector (Agilent 1,260 Infinity DAD). Purified (glyco)peptides were characterized by matrix-assisted laser desorption ionization time-of-flight mass spectrometry (MALDI-TOF MS) with a Voyager-DE STR system or a Bruker Microflex system, using α-cyano-4-hydroxycinnamic acid as matrix.
Automated solid-phase peptide synthesis (SPPS) approach on Tentagel S RAM resin was used to assemble the APP (glyco)peptides. […]

Where [4] appears, read: (B) 10 mM sodium phosphate buffer, pH 7.4.

Where only a bound is given, the exact number is not on record here.

T2 sequence (P56817 46-457 limits assumed): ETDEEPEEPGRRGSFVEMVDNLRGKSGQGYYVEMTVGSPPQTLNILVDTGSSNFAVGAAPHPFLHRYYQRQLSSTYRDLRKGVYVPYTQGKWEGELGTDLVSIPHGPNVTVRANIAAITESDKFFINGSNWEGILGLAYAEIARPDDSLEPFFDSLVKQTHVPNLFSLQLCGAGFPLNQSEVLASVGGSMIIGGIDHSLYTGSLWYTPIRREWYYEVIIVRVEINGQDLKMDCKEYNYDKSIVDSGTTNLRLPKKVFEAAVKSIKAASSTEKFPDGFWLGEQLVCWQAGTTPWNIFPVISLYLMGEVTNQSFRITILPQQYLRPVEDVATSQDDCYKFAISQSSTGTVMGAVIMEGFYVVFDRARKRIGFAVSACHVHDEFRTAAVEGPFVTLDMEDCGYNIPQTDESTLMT
T1 sequence (P05067 672-711 limits assumed): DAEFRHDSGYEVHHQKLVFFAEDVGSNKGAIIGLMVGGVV
Procedure for Aβ40: Lyophilized peptide powder was dissolved in aqueous NaOH solution (2 mM), and the pH was adjusted to ∼11 by using 100 mM NaOH solution. The solution was sonicated for 1 h in an ice−water bath and then filtered through a 0.22 μm filter (Millipore) and kept on ice before use. The concentration of the peptide solution was determined by using the tyrosine UV absorbance at 280 nm (ε = 1280 M^−1 cm^−1).
The aggregation kinetics of Aβ40 in the absence and presence of APP (glyco)peptides was performed using ThT binding assay. The monomerized Aβ40 peptide solution was diluted to a final concentration of 10 µM in 50 mM phosphate buffer (pH 7.4) and 20 µM ThT dye. For the co-incubation assays with APP (glyco)peptides, APP stock solutions of 120 µM were added to the prepared Aβ40 for final (glyco) peptide concentrations of 10 µM or 50 µM and Aβ40 concentration of 10 µM in 50 mM phosphate buffer (pH 7.4) with 20 µM ThT dye. […] The plate was sealed with a microplate cover and loaded into a Gemini SpectraMax EM fluorescence plate reader (Molecular Devices, Sunnyvale, CA) and incubated at 37°C. The ThT fluorescence was measured from the bottom of the plate at 10 min intervals, with 5 s of shaking, and with an excitation and emission wavelengths of 440 and 480 nm, respectively. […]
°C. ThT fluorescence was measured in 10 minute intervals.

On to `CC(=O)N[C@H]1C(O)O[C@H](CO)[C@H](O)[C@@H]1O` (mixture of isomers) [GalNAc, N-acetylgalactosamine], for which, on Aβ40 (additive 10 and 50 µM, Aβ40 10 µM), the “Δt50 (t50 with additive - Aβ40 t50)” value was below 0.5 h.

As to “Aβ40: amyloid-β 40 peptide made by Fmoc SPPS, model peptide for studying protein aggregation”, in the data set with Aβ40 (Aβ40 10 μM alone, triplicate), the “half time (t 50) of the growth phase of Aβ40 amyloidogenesis” value is recorded as “approximately 8 h”.

As to “IKT*EEIS*EVKM∼DAEFRHDSG [compound 9, native APP 661-680 glycopeptide with O-GalNAc on Thr^663 and Ser^667]”, in data set [1] ((A) water), the “RC (%) random coil” value stood at 22.4%, the “α-H (%) α-helix” value is on record as 12.8%, the “β-AP (%) anti-parallel β-sheet” value is listed as 48.2% and the “β-P (%) parallel β-sheet” value is on record as 0.0%. Further, the “β-T (%) β-turn” value in data set [1] ((A) water) is reported as 16.6%. Also, in data set [1] (setting [4]), the “RC (%) random coil” value turned out to be 48.7%, the “α-H (%) α-helix” value amounted to 9.5%, the “β-AP (%) anti-parallel β-sheet” value is given as 24.6% and the “β-P (%) parallel β-sheet” value was 0.0%. Also, in data set [1] (setting [4]), the “β-T (%) β-turn” value worked out at 17.1%. In data set [1] ((C) TFE/water = 1:1 (v/v)), the “RC (%) random coil” value amounted to 0.0%, the “α-H (%) α-helix” value came out at 94.4%, the “β-AP (%) anti-parallel β-sheet” value amounted to 0.0% and the “β-P (%) parallel β-sheet” value is given as 0.0%. Also, the “β-T (%) β-turn” value in data set [1] ((C) TFE/water = 1:1 (v/v)) came out at 5.6%. In addition, the “β-structure (anti-parallel β-sheet, parallel β-sheet, and β-turn)” value in data set [1] (water, sum of BeStSel contents) came to 64.8%. In data set [2], the “BACE-1 activity, Cleaved (%)” value is recorded as 4.12% and the “BACE-1 activity, Recovered (%)” value is 95.9%.

On to “IKT*EEISEVKM∼DAEFRHDSG [compound 8, native APP 661-680 glycopeptide with O-GalNAc on Thr^663]”, for which the “RP-HPLC t R” value in data set [3] was found to be 14.4 min. Further, in data set [1] ((A) water), the “RC (%) random coil” value is 87.4%, the “α-H (%) α-helix” value is 1.4%, the “β-AP (%) anti-parallel β-sheet” value came out at 5.4% and the “β-P (%) parallel β-sheet” value stood at 0.0%. Moreover, the “β-T (%) β-turn” value in data set [1] ((A) water) was 5.7%. In data set [1] (setting [4]), the “RC (%) random coil” value came out at 30.4%, the “α-H (%) α-helix” value was determined as 8.8%, the “β-AP (%) anti-parallel β-sheet” value is 42.6% and the “β-P (%) parallel β-sheet” value is listed as 0.0%. Moreover, the “β-T (%) β-turn” value in data set [1] (setting [4]) was 18.3%. For the same compound, in data set [1] ((C) TFE/water = 1:1 (v/v)), the “RC (%) random coil” value was determined as 8.3%, the “α-H (%) α-helix” value was found to be 85.7%, the “β-AP (%) anti-parallel β-sheet” value stood at 0.0% and the “β-P (%) parallel β-sheet” value amounted to 0.0%. For the same compound, the “β-T (%) β-turn” value in data set [1] ((C) TFE/water = 1:1 (v/v)) was 6.0%. Also, in data set [2], the “BACE-1 activity, Cleaved (%)” value is reported as 8.46% and the “BACE-1 activity, Recovered (%)” value is 91.5%.
